Results: patent publication US20240092758A1, “IMIDAZOLO INDAZOLE COMPOUNDS AS JAK INHIBITORS” (Theravance Biopharma R&D IP, LLC, priority 2021, published 2024)

How the values were obtained:
[1] = target: JAK1 (Homo sapiens (Human), UniProt P23458); assay: Biochemical JAK kinase assay (LanthaScreen), JAK1; details: for Ki: read-out: JAK1 pKi (converted)
Method in brief: (§1)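 LanthaScreen format: phospho-STAT1 (pTyr701) detected with 2 nM Tb antibody after 10 mM EDTA quench. Kinase step used Km-level ATP and 200 nM STAT1 peptide, 1 h at ambient after 1 h pre-incubation. Inhibition fitted to IC50, reported as pKi.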

[2] = target: JAK2 (Homo sapiens (Human), UniProt O60674); assay: Biochemical JAK kinase assay (LanthaScreen), JAK2; details: for Ki: read-out: JAK2 pKi (converted)
Sequence of JAK2 (O60674 whole entry): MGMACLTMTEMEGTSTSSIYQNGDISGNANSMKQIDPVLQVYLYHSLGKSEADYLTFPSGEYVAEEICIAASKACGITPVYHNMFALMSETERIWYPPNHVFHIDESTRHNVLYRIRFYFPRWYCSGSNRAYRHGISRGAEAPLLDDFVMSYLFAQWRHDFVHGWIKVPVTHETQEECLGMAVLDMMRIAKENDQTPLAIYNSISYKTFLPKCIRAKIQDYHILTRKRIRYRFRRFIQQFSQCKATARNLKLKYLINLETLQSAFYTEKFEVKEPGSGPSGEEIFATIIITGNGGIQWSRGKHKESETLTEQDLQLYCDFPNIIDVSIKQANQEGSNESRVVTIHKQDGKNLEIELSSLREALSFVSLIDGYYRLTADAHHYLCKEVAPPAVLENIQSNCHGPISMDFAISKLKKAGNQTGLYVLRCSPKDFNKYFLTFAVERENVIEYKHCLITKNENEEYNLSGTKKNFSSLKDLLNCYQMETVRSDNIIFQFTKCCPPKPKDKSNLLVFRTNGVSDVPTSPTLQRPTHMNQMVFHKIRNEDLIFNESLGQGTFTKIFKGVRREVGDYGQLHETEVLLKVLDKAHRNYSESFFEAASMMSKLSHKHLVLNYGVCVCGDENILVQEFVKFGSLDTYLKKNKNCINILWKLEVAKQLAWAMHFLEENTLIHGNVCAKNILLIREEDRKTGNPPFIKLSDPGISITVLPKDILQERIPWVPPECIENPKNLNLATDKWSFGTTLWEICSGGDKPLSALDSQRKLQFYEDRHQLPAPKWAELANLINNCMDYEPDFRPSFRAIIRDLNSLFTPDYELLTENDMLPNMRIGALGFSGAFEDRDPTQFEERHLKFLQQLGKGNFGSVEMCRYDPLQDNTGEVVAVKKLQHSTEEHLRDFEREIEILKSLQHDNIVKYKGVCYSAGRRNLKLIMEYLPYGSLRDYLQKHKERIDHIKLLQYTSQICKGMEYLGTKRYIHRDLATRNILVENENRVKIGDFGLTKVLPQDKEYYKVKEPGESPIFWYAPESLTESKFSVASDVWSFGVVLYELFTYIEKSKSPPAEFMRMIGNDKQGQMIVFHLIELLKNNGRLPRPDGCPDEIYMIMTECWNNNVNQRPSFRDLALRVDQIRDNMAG
Method in brief: as §1

[3] = test system: IL-13 induced STAT6 phosphorylation in BEAS-2B human lung epithelial cells; assay: Cellular JAKI potency assay (BEAS-2B); type: cell-based; details: BEAS-2B cells; for IC50: Homo sapiens, BEAS-2B, read-out: BEAS2B pIC50 (converted)
Method in brief: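 BEAS-2B cells were preincubated with compound (0.1% DMSO) in HBSS/HEPES/BSA for 1 h at 37 °C, then stimulated with IL-13 (80 ng/mL before addition) for 30 min. After lysis, pSTAT6 (Tyr641) was quantified by AlphaLISA SureFire; IC50 from a 4-parameter fit of percent inhibition, reported as pIC50.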

Sequence of JAK1 (P23458 whole entry): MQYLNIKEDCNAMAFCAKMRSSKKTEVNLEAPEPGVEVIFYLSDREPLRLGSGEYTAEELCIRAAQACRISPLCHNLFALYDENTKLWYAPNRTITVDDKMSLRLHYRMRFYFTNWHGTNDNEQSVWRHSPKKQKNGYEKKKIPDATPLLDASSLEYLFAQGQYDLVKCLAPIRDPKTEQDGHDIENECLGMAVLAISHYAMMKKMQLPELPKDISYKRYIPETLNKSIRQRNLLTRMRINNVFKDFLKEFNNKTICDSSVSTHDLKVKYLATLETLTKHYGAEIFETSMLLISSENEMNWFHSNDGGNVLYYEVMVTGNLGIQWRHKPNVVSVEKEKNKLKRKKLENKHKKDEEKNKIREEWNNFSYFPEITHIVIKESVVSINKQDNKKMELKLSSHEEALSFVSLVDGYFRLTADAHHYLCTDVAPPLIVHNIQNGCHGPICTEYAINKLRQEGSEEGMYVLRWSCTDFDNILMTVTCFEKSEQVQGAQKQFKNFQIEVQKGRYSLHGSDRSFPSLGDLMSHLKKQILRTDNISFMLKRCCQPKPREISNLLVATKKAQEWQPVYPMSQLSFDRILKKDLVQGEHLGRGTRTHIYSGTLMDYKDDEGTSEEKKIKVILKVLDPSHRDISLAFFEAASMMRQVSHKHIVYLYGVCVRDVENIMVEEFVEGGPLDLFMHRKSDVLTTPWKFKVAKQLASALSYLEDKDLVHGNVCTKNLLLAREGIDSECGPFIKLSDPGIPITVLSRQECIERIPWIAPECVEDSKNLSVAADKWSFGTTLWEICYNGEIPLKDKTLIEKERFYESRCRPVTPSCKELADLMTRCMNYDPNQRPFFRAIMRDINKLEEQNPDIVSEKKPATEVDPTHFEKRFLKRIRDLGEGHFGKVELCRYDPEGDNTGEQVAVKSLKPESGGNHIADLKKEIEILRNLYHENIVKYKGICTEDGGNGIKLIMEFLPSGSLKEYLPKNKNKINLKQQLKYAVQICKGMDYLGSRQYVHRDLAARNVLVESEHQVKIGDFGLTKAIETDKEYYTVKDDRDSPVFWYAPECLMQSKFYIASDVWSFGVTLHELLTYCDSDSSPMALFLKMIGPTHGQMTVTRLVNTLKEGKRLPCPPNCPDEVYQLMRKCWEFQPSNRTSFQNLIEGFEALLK

SMILES	Ki [1] [nM]	Ki [2] [nM]	IC50 [3] [nM]	JAK1 pKi [1]	JAK2 pKi [2]	BEAS2B pIC50 [3]
CCc1cc(O)ccc1-c1ccc2c(-c3nc(C4=CCN(CCN5CCNC5=O)C4)c[nH]3)n[nH]c2c1 [Example 127]	0.1 to 1	0.1 to 1	10 to 31.6			
CCc1cc(O)ccc1-c1ccc2c(-c3nc(C4=CCN([C@H]5CC[C@H](O)CC5)C4)c[nH]3)n[nH]c2c1 [Example 128]			3.16 to 10	A (A represents a pKi value ≥10 (Ki≤0.1 nM))	A (A represents a pKi value ≥10 (Ki≤0.1 nM))	
CCc1cc(O)ccc1-c1ccc2c(-c3nc(C4=CCN([C@H]5CC[C@@H](O)CC5)C4)c[nH]3)n[nH]c2c1F [Example 129]				A (A represents a pKi value ≥10 (Ki≤0.1 nM))	A (A represents a pKi value ≥10 (Ki≤0.1 nM))	A (A represents a pIC50 value between 8 (included) and 8.5)
CCc1cc(O)ccc1-c1ccc2c(-c3nc(C4=CCN(Cc5ccccc5)CC4)c[nH]3)n[nH]c2c1 [Example 130]	0.1 to 1	1 to 10	31.6 to 100			
CCc1cc(O)ccc1-c1ccc2c(-c3nc(C4=CCN(Cc5cnc[nH]5)CC4)c[nH]3)n[nH]c2c1 [Example 131]			10 to 31.6	A (A represents a pKi value ≥10 (Ki≤0.1 nM))	A (A represents a pKi value ≥10 (Ki≤0.1 nM))	
CCc1cc(O)ccc1-c1ccc2c(-c3nc(C4=CCN(Cc5cn[nH]c5)CC4)c[nH]3)n[nH]c2c1 [Example 132]			3.16 to 10	A (A represents a pKi value ≥10 (Ki≤0.1 nM))	A (A represents a pKi value ≥10 (Ki≤0.1 nM))	
CCc1cc(O)ccc1-c1ccc2c(-c3nc(C4=CCN(Cc5cnn[nH]5)CC4)c[nH]3)n[nH]c2c1 [Example 133]	0.1 to 1		10 to 31.6		A (A represents a pKi value ≥10 (Ki≤0.1 nM))	
CCc1cc(O)ccc1-c1ccc2c(-c3nc(C4=CCN(Cc5ccccc5)CC4)c[nH]3)n[nH]c2c1F [Example 134]	1 to 10	1 to 10	100 to 316			
CCc1cc(O)ccc1-c1ccc2c(-c3nc(C4=CCN(CCc5ccccc5)CC4)c[nH]3)n[nH]c2c1F [Example 135]	1 to 10	1 to 10	100 to 316			
CCc1cc(O)ccc1-c1ccc2c(-c3nc(C4=CCN(Cc5cnc[nH]5)CC4)c[nH]3)n[nH]c2c1F [Example 136]	0.1 to 1	0.1 to 1	31.6 to 100			
CCc1cc(O)ccc1-c1ccc2c(-c3nc(C4=CCN(Cc5ccn[nH]5)CC4)c[nH]3)n[nH]c2c1F [Example 137]	0.1 to 1	0.1 to 1	10 to 31.6			
CCc1cc(O)ccc1-c1ccc2c(-c3nc(C4=CCCN(Cc5ccccc5)C4)c[nH]3)n[nH]c2c1 [Example 138]	0.1 to 1	0.1 to 1	100 to 316			
CCc1cc(O)ccc1-c1ccc2c(-c3nc(C4=CCCN(CCc5ccccc5)C4)c[nH]3)n[nH]c2c1 [Example 139]	1 to 10	0.1 to 1	100 to 316			
CCc1cc(O)ccc1-c1ccc2c(-c3nc(C4=CCN(Cc5ccccc5)C4)c[nH]3)n[nH]c2c1 [Example 140]	0.1 to 1	0.1 to 1	31.6 to 100			
CCc1cc(O)ccc1-c1ccc2c(-c3nc(C4=CCN(CCc5ccccc5)C4)c[nH]3)n[nH]c2c1 [Example 141]	0.1 to 1	0.1 to 1	100 to 316			
CCc1cc(O)ccc1-c1ccc2c(-c3nc(C4=CCN(Cc5cnc[nH]5)C4)c[nH]3)n[nH]c2c1 [Example 142]			10 to 31.6	A (A represents a pKi value ≥10 (Ki≤0.1 nM))	A (A represents a pKi value ≥10 (Ki≤0.1 nM))	
CCc1cc(O)ccc1-c1ccc2c(-c3nc(C4=CCN(Cc5ccn[nH]5)C4)c[nH]3)n[nH]c2c1 [Example 143]			10 to 31.6	A (A represents a pKi value ≥10 (Ki≤0.1 nM))	A (A represents a pKi value ≥10 (Ki≤0.1 nM))	
CCc1cc(O)ccc1-c1ccc2c(-c3nc(C4=CCN(Cc5c[nH]nn5)C4)c[nH]3)n[nH]c2c1 [Example 144]			10 to 31.6	A (A represents a pKi value ≥10 (Ki≤0.1 nM))	A (A represents a pKi value ≥10 (Ki≤0.1 nM))	
CCc1cc(O)ccc1-c1ccc2c(-c3nc(C4=CCN(Cc5cn[nH]c5)C4)c[nH]3)n[nH]c2c1F [Example 145]			10 to 31.6	A (A represents a pKi value ≥10 (Ki≤0.1 nM))	A (A represents a pKi value ≥10 (Ki≤0.1 nM))	
CCc1cc(O)ccc1-c1ccc2c(-c3nc(C4=CCN(Cc5c[nH]nn5)C4)c[nH]3)n[nH]c2c1F [Example 146]	0.1 to 1	0.1 to 1	10 to 31.6			
CCc1cc(O)ccc1-c1ccc2c(-c3nc(C4=CCN(C(C)=O)CC4)c[nH]3)n[nH]c2c1 [Example 147]	0.1 to 1	0.1 to 1	10 to 31.6			
CCc1cc(O)ccc1-c1ccc2c(-c3nc(C4=CCN(S(C)(=O)=O)CC4)c[nH]3)n[nH]c2c1 [Example 148]	0.1 to 1	0.1 to 1	10 to 31.6			

SMILES	Ki [1] [nM]	Ki [2] [nM]	IC50 [3] [nM]	JAK1 pKi [1]	JAK2 pKi [2]	BEAS2B pIC50 [3]
CCc1cc(O)ccc1-c1ccc2c(-c3nc(C4=CCN(C(=O)OC)CC4)c[nH]3)n[nH]c2c1 [Example 149]	1 to 10	1 to 10	31.6 to 100			
CCc1cc(O)ccc1-c1ccc2c(-c3nc(C4=CCN(C(=O)NC)CC4)c[nH]3)n[nH]c2c1 [Example 150]	0.1 to 1	0.1 to 1	10 to 31.6			
CCc1cc(O)ccc1-c1ccc2c(-c3nc(C4=CCN(C(=O)c5ccccc5)CC4)c[nH]3)n[nH]c2c1 [Example 151]	1 to 10	1 to 10	31.6 to 100			
CCc1cc(O)ccc1-c1ccc2c(-c3nc(C4=CCN(C(C)=O)CC4)c[nH]3)n[nH]c2c1F [Example 154]	0.1 to 1	0.1 to 1	10 to 31.6			
CCc1cc(O)ccc1-c1ccc2c(-c3nc(C4=CCN(S(C)(=O)=O)CC4)c[nH]3)n[nH]c2c1F [Example 155]	1 to 10	0.1 to 1	10 to 31.6			
CCc1cc(O)ccc1-c1ccc2c(-c3nc(C4=CCN(C(=O)OC)CC4)c[nH]3)n[nH]c2c1F [Example 156]	1 to 10	0.1 to 1	31.6 to 100			
CCc1cc(O)ccc1-c1ccc2c(-c3nc(C4=CCCN(C(C)=O)C4)c[nH]3)n[nH]c2c1 [Example 159]	0.1 to 1	0.1 to 1	10 to 31.6			
CCc1cc(O)ccc1-c1ccc2c(-c3nc(C4=CCCN(S(C)(=O)=O)C4)c[nH]3)n[nH]c2c1 [Example 160]	0.1 to 1	0.1 to 1	10 to 31.6			
CCc1cc(O)ccc1-c1ccc2c(-c3nc(C4=CCCN(C(=O)OC)C4)c[nH]3)n[nH]c2c1 [Example 161]	0.1 to 1	1 to 10	31.6 to 100			
CCc1cc(O)ccc1-c1ccc2c(-c3nc(C4=CCCN(C(=O)NC)C4)c[nH]3)n[nH]c2c1 [Example 162]	0.1 to 1	0.1 to 1	31.6 to 100			
CCc1cc(O)ccc1-c1ccc2c(-c3nc(C4=CCCN(C(=O)c5ccccc5)C4)c[nH]3)n[nH]c2c1 [Example 163]	1 to 10	1 to 10	31.6 to 100			
CCc1cc(O)ccc1-c1ccc2c(-c3nc(C4=CCCN(C(=O)CN)C4)c[nH]3)n[nH]c2c1 [Example 164]	0.1 to 1	0.1 to 1	10 to 31.6			
CCc1cc(O)ccc1-c1ccc2c(-c3nc(C4=CCN(C(C)=O)C4)c[nH]3)n[nH]c2c1 [Example 166]			3.16 to 10	A (A represents a pKi value ≥10 (Ki≤0.1 nM))	A (A represents a pKi value ≥10 (Ki≤0.1 nM))	
CCc1cc(O)ccc1-c1ccc2c(-c3nc(C4=CCN(S(C)(=O)=O)C4)c[nH]3)n[nH]c2c1 [Example 167]	0.1 to 1	1 to 10	3.16 to 10			
CCc1cc(O)ccc1-c1ccc2c(-c3nc(C4=CCN(C(=O)OC)C4)c[nH]3)n[nH]c2c1 [Example 168]	0.1 to 1	0.1 to 1	10 to 31.6			
CCc1cc(O)ccc1-c1ccc2c(-c3nc(C4=CCN(C(=O)NC)C4)c[nH]3)n[nH]c2c1 [Example 169]	0.1 to 1		31.6 to 100		A (A represents a pKi value ≥10 (Ki≤0.1 nM))	
CCc1cc(O)ccc1-c1ccc2c(-c3nc(C4=CCN(C(C)=O)C4)c[nH]3)n[nH]c2c1F [Example 171]	0.1 to 1	0.1 to 1	10 to 31.6			
CCc1cc(O)ccc1-c1ccc2c(-c3nc(C4=CCN(S(C)(=O)=O)C4)c[nH]3)n[nH]c2c1F [Example 172]	1 to 10	0.1 to 1	10 to 31.6			
CCc1cc(O)ccc1-c1ccc2c(-c3nc(C4=CCN(C[C@H]5COCCN5)CC4)c[nH]3)n[nH]c2c1F [Example 190]	0.1 to 1	0.1 to 1	31.6 to 100			
CCc1cc(O)ccc1-c1ccc2c(-c3nc(C4=CCN(C[C@@H]5COCCN5)C4)c[nH]3)n[nH]c2c1 [Example 200]	0.1 to 1		10 to 31.6		A (A represents a pKi value ≥10 (Ki≤0.1 nM))	
CCc1cc(O)ccc1-c1ccc2c(-c3nc(C4=CC5COCC(C4)N5)c[nH]3)n[nH]c2c1F (stereo not drawn) [Example 228]	0.1 to 1	0.1 to 1	10 to 31.6			
CCc1cc(O)ccc1-c1ccc2c(-c3nc(C4=CCC5(CNC5)OC4)c[nH]3)n[nH]c2c1 [Example 229]	0.1 to 1		31.6 to 100		A (A represents a pKi value ≥10 (Ki≤0.1 nM))	
